The values that follow come from patent publication US20250034170A1, “SMALL MOLECULE MODULATORS OF GLUCOCEREBROSIDASE ACTIVITY AND USES THEREOF” (Vanqua Bio, Inc., priority 2021, published 2025).

Each structure is given as a SMILES string. A value given as a limit tells only on which side of the number the result lay.

The first assay has as its target T1, GCase (Homo sapiens, UniProt P04062).
T1 construct: endogenous in cells; host or cells: HeLa cells
T1 sequence (P04062 40-536): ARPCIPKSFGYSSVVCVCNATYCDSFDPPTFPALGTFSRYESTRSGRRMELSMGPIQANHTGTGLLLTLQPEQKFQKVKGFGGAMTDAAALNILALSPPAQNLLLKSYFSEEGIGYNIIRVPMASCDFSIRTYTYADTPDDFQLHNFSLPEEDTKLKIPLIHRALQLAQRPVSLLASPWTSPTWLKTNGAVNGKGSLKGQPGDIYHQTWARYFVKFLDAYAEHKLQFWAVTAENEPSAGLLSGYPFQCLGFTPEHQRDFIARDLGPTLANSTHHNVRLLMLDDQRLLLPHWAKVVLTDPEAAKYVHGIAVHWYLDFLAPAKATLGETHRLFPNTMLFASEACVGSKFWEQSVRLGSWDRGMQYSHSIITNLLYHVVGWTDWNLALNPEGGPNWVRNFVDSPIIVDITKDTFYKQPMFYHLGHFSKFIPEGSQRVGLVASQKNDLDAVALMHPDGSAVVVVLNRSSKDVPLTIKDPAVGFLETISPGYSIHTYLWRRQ
The assay can be described thus: activation of GCase in a live cell PFB assay in HELA cells. Format: cell-based. As to conditions: EC50 given as range classes. On the procedure:
Exemplary compounds were evaluated for activation of GCase in a live cell PFB assay in HELA cells (essentially as described in Ysselstein et al., “LRRK2 kinase activity regulates lysosomal glucocerebrosidase in neurons derived from Parkinson's disease patients” Nature Communications (2019) 10:5570). […] EC50 ranges: A: <10 μM; B: >10-50 μM; C: >50-100 μM; D: >100 μM.
In general, EC50 refers to the midpoint of the concentration-response curve. In turn, `Cc1cc(C(F)(F)F)ncc1N1CC2(CCN(c3cnc4cnn(CC(F)F)c4n3)CC2)CC1=O` [Cmpd 778] gave a concentration giving a half-maximal response (EC50) below 10 µM. For `COc1nc(C(F)(F)F)ccc1N1CC2(CCN(c3cnc4cnn(CC(F)F)c4n3)CC2)CC1=O` [Cmpd 779], the EC50 is below 10 µM. The same measure, in the same setting: the figure for `O=C1CC2(CCN(c3cnc4cnn(CC(F)F)c4n3)CC2)CN1c1ccc(C(F)(F)F)nc1OC(F)F` [Cmpd 780] is below 10 µM; for `Cc1ccc(N2CC3(CCN(c4cnc5cnn(CC(F)F)c5n4)CC3)CC2=O)c(OC(F)F)n1` [Cmpd 781] it is below 10 µM.

The compound `Cc1ccc(N2CC3(CCN(c4cnc5cnn(CC(F)F)c5n4)CC3)CC2=O)c(OC(F)(F)F)n1` [Cmpd 782] displayed a half-maximal effective concentration (EC50) below 10 µM. Still for that read-out and setting: for `COc1nc(N2CCC3(CCN(c4cnc5cnn(CC(F)F)c5n4)CC3)C2=O)ccc1C(F)(F)F` [Cmpd 783] the value was 50 to 100 µM; for `COc1ccc(C(F)(F)F)c(N2CCC3(CCN(c4cnc5cnn(CC(F)F)c5n4)CC3)C2=O)n1` [Cmpd 784], below 10 µM; for `Cc1cnc(N2CCC3(CCN(c4cnc5cnn(CC(F)F)c5n4)CC3)C2)nc1C(F)(F)F` [Cmpd 785], above 100 µM. The compound `Cc1nc(C(F)(F)F)cnc1N1CCC2(CCN(c3cnc4cnn(CC(F)F)c4n3)CC2)C1` [Cmpd 786] yielded an EC50 below 10 µM.

Take `COc1nc(C(F)(F)F)ncc1N1CCC2(CCN(c3cnc4cnn(CC(F)F)c4n3)CC2)C1` [Cmpd 787]: the 50% effective concentration (EC50) is below 10 µM. With `COc1ncc(N2CCC3(CCN(c4cnc5cnn(CC(F)F)c5n4)CC3)C2)c(C(F)(F)F)n1` [Cmpd 788], the half-maximal effective concentration (EC50) lay within 10 to 50 µM. The same measure, in the same setting: the figure for `O=C1CC2(CCN(c3cnc4cnn(CC(F)F)c4n3)C2)CCN1c1ccc(C(F)(F)F)nc1` (stereo not shown) [Cmpd 789] is 10 to 50 µM; for `O=C1CCC2(CCN(c3cnc4cnn(CC(F)F)c4n3)C2)CN1c1ccc(C(F)(F)F)nc1` (stereo not shown) [Cmpd 790] it is below 10 µM.

For the compound `O=C1CC2(CCN(c3cnc4cnn(CC(F)F)c4n3)C2)CCN1c1ccc(C(F)(F)F)cn1` (stereo not shown) [Cmpd 791], the EC50 lay in the range of 50 to 100 µM.

As for `O=C1CCC2(CCN(c3cnc4cnn(CC(F)F)c4n3)C2)CN1c1ccc(C(F)(F)F)cn1` (stereo not shown) [Cmpd 792], the EC50 is below 10 µM. On the same count and under the same terms, the figure for `O=C1CC2(CCN(c3cnc4cnn(CC(F)F)c4n3)C2)CCN1c1cc(C(F)(F)F)ccn1` (stereo not shown) [Cmpd 793] is 10 to 50 µM. Still for that read-out and setting: for `O=C1CCC2(CCN(c3cnc4cnn(CC(F)F)c4n3)C2)CN1c1cc(C(F)(F)F)ccn1` (stereo not shown) [Cmpd 794] the value was below 10 µM; for `O=C1CC2(CCN(c3cnc4cnn(CC(F)F)c4n3)C2)CCN1c1cncc(C(F)(F)F)c1` (stereo not shown) [Cmpd 795], below 10 µM; for `O=C1CCC2(CCN(c3cnc4cnn(CC(F)F)c4n3)C2)CN1c1cncc(C(F)(F)F)c1` (stereo not shown) [Cmpd 796], below 10 µM. Consider `O=C1N(c2ccc(C(F)(F)F)nc2)CCC12CC1CCC(C2)N1c1cnc2cnn(CC(F)F)c2n1` (stereo not shown) [Cmpd 797], for which the 50% effective concentration (EC50) is below 10 µM. Take `O=C1N(c2ccc(C(F)(F)F)cn2)CCC12CC1CCC(C2)N1c1cnc2cnn(CC(F)F)c2n1` (stereo not shown) [Cmpd 798]: the 50% effective concentration (EC50) lay within 10 to 50 µM. Still for that read-out and setting: the figure for `O=C1N(c2ccc(C(F)(F)F)nc2)CCC12C1CCC2CN(c2cnc3cnn(CC(F)F)c3n2)C1` (stereo not shown) [Cmpd 799] is below 10 µM; for `O=C1N(c2ccc(C(F)(F)F)cn2)CCC12C1CCC2CN(c2cnc3cnn(CC(F)F)c3n2)C1` (stereo not shown) [Cmpd 800] it is below 10 µM; for `O=C1CC2(CN1c1ccc(C(F)(F)F)nc1)C1CC2CN(c2cnc3cnn(CC(F)F)c3n2)C1` (stereo not shown) [Cmpd 801] it is 50 to 100 µM.

Take `O=C1CC2(CN1c1ccc(C(F)(F)F)cn1)C1CC2CN(c2cnc3cnn(CC(F)F)c3n2)C1` (stereo not shown) [Cmpd 802]: the 50% effective concentration (EC50) lay within 10 to 50 µM. As for `O=C1N(c2cnc3cnn(CC(F)F)c3n2)CCC12CC1CCC(C2)N1c1ccc(C(F)(F)F)nc1` (stereo not shown) [Cmpd 803], the EC50 was below 10 µM.

The assay is the same for the next values; noted with them: activation of GCase, EC50 ranges.
`FC(F)Cn1ncc2ncc(N3CCC4(CCN(c5cnc(OCC(F)(F)F)nc5)C4)CC3)nc21` [Cmpd 739] came in with a concentration giving a half-maximal response (EC50) below 10 µM. `Fc1cnc(N2CCC3(CCN(c4cnc5cnn(CC(F)F)c5n4)CC3)C2)cc1C(F)(F)F` [Cmpd 740]: the concentration for a half-maximal effect (EC50) is below 10 µM. Still for that read-out and setting: the figure for `Fc1cnc(C(F)(F)F)cc1N1CCC2(CCN(c3cnc4cnn(CC(F)F)c4n3)CC2)C1` [Cmpd 741] is below 10 µM; for `Fc1cc(N2CCC3(CCN(c4cnc5cnn(CC(F)F)c5n4)CC3)C2)cnc1C(F)(F)F` [Cmpd 742] it is below 10 µM. Consider `Fc1cc(C(F)(F)F)cnc1N1CCC2(CCN(c3cnc4cnn(CC(F)F)c4n3)CC2)C1` [Cmpd 743], for which the concentration giving a half-maximal response (EC50) lay in the range of 10 to 50 µM. For `CC1CC2(CCN(c3cc(C(F)(F)F)ccn3)C2)CCN1c1cnc2cnn(CC(F)F)c2n1` (stereo not shown) [Cmpd 745], the EC50 was below 10 µM. Take `CC1CN(c2cnc3cnn(CC(F)F)c3n2)CCC12CCN(c1cc(C(F)(F)F)ccn1)C2` (stereo not shown) [Cmpd 746]: the EC50 was below 10 µM. The same measure, in the same setting: for `CC1N(c2cc(C(F)(F)F)ccn2)CCC12CCN(c1cnc3cnn(CC(F)F)c3n1)CC2` (stereo not shown) [Cmpd 747] the value was 10 to 50 µM. On the same count and under the same terms, the figure for `CC1CN(c2cc(C(F)(F)F)ccn2)CC12CCN(c1cnc3cnn(CC(F)F)c3n1)CC2` (stereo not shown) [Cmpd 748] is below 10 µM. `CC1CC2(CCN(c3cnc4cnn(CC(F)F)c4n3)CC2)CN1c1cc(C(F)(F)F)ccn1` (stereo not shown) [Cmpd 749] had a half-maximal effective concentration (EC50) of 10 to 50 µM. Same read-out and setting: the figure for `COCCn1ncc2ncc(N3CCC4(CCN(c5cc(C(F)(F)F)ccn5)C4)CC3)nc21` [Cmpd 750] is below 10 µM. Same read-out and setting: the figure for `FC(F)OCCn1ncc2ncc(N3CCC4(CCN(c5cc(C(F)(F)F)ccn5)C4)CC3)nc21` [Cmpd 751] is 10 to 50 µM. On the same count and under the same terms, the figure for `CC(C(F)F)n1ncc2ncc(N3CCC4(CCN(c5cc(C(F)(F)F)ccn5)C4)CC3)nc21` (stereo not shown) [Cmpd 752] is below 10 µM. `Cc1cc(C(F)(F)F)ncc1N1CCC2(CCN(c3cnc4cnn(CC(F)F)c4n3)CC2)C1` [Cmpd 753] registered a concentration for a half-maximal effect (EC50) below 10 µM. The same measure, in the same setting: the figure for `FC(F)Cn1ncc2ncc(N3CCC4(CC3)CCN(c3cnc(C(F)(F)F)cc3Cl)C4)nc21` [Cmpd 754] is above 100 µM. On the same count and under the same terms, for `Cc1cc(C)c(N2CCC3(CCN(c4cnc5cnn(CC(F)F)c5n4)CC3)C2)nn1` [Cmpd 755] the value was 10 to 50 µM; for `Cc1cc(C(F)(F)F)nnc1N1CCC2(CCN(c3cnc4cnn(CC(F)F)c4n3)CC2)C1` [Cmpd 756], 10 to 50 µM; for `Cc1ccc(N2CCC3(CCN(c4cnc5cnn(CC(F)F)c5n4)CC3)C2)nn1` [Cmpd 757], below 10 µM. The compound `Cc1nccc(N2CCC3(CCN(c4cnc5cnn(CC(F)F)c5n4)CC3)C2)n1` [Cmpd 758] came in with an EC50 below 10 µM. As to `Cc1ncc(N2CCC3(CCN(c4cnc5cnn(CC(F)F)c5n4)CC3)C2)cn1` [Cmpd 759], the EC50 is below 10 µM.

The compound `CCc1ncc(N2CCC3(CCN(c4cnc5cnn(CC(F)F)c5n4)CC3)C2)cn1` [Cmpd 760] came in with an EC50 below 10 µM. The same measure, in the same setting: for `Cc1nc(C(F)(F)F)ncc1N1CCC2(CCN(c3cnc4cnn(CC(F)F)c4n3)CC2)C1` [Cmpd 761] the value was below 10 µM.

In turn, `COc1ncc(N2CCC3(CCN(c4cnc5cnn(CC(F)F)c5n4)CC3)C2)cn1` [Cmpd 762] returned a concentration giving a half-maximal response (EC50) below 10 µM.

`CCOc1ncc(N2CCC3(CCN(c4cnc5cnn(CC(F)F)c5n4)CC3)C2)cn1` [Cmpd 763] gave a half-maximal effective concentration (EC50) below 10 µM. In turn, `Cc1ncc(N2CCC3(CCN(c4cnc5cnn(CC(F)F)c5n4)CC3)C2)nc1C(F)(F)F` [Cmpd 764] had an EC50 below 10 µM. Still for that read-out and setting: for `Cc1ncc(C(F)(F)F)nc1N1CCC2(CCN(c3cnc4cnn(CC(F)F)c4n3)CC2)C1` [Cmpd 765] the value was below 10 µM. On the same count and under the same terms, for `Fc1ncc(C(F)(F)F)nc1N1CCC2(CCN(c3cnc4cnn(CC(F)F)c4n3)CC2)C1` [Cmpd 766] the value was below 10 µM; for `Fc1ncc(N2CCC3(CCN(c4cnc5cnn(CC(F)F)c5n4)CC3)C2)nc1C(F)(F)F` [Cmpd 767], below 10 µM; for `FC(F)(F)c1cncc(N2CCC3(CCN(c4cnc5cnn(C6COC6)c5n4)CC3)C2)n1` [Cmpd 768], below 10 µM. `O=C1CC2(CCN(c3cnc4cnn(C5COC5)c4n3)CC2)CN1c1ccnc(C(F)(F)F)c1` [Cmpd 769] showed an EC50 of 10 to 50 µM.

Compound `FC(F)Cn1ncc2ncc(N3CC4(CCN(c5cnc(C(F)(F)F)cn5)CC4)C3)nc21` [Cmpd 770] registered a 50% effective concentration (EC50) below 10 µM. On the same count and under the same terms, the figure for `FC(F)Cn1ncc2ncc(N3CC4(CCN(c5cncc(C(F)(F)F)n5)CC4)C3)nc21` [Cmpd 771] is below 10 µM. Still for that read-out and setting: for `O=C1N(c2cnc3cnn(CC(F)F)c3n2)CCC12CCN(c1cnc(C(F)(F)F)cn1)CC2` [Cmpd 772] the value was above 100 µM; for `O=C1N(c2nccc(C(F)(F)F)n2)CCC12CCN(c1cnc3cnn(CC(F)F)c3n1)CC2` [Cmpd 773], below 10 µM. Compound `O=C1N(c2cncc(C(F)(F)F)n2)CCC12CCN(c1cnc3cnn(CC(F)F)c3n1)CC2` [Cmpd 774] yielded a half-maximal effective concentration (EC50) below 10 µM. Take `Cc1cc(C(F)(F)F)cnc1N1CCC2(CCN(c3cnc4cnn(CC(F)F)c4n3)CC2)C1=O` [Cmpd 775]: the concentration giving a half-maximal response (EC50) was above 100 µM. Turning to `O=C1N(c2ncc(C(F)(F)F)cc2Cl)CCC12CCN(c1cnc3cnn(CC(F)F)c3n1)CC2` [Cmpd 776], the 50% effective concentration (EC50) was 10 to 50 µM. Still for that read-out and setting: the figure for `O=C1N(c2ncc(C(F)(F)F)cc2F)CCC12CCN(c1cnc3cnn(CC(F)F)c3n1)CC2` [Cmpd 777] is above 100 µM.
